Results taken from US20250161338A1, “Compounds for Anti-aging Intervention” (AGENCY FOR SCIENCE, TECHNOLOGY AND RESEARCH, priority 2022, published 2025).

What was measured:
[1] = system: prototrophic yeast strain (CEN.PK113-7D); assay: Yeast outgrowth in YPD liquid medium (CLS of aged cells); type: cell-based, Saccharomyces cerevisiae
Summary of the method: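 Cultures aged at 30 °C in SD medium with double-diluted rapamycin (0–10 nM) or sugars/polyols (0–8 mM). On day 14, 3 µL of culture was transferred into 200 µL YPD and outgrowth read as OD600. Survival expressed relative to day 1 outgrowth (100%).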

HEK293 cells = assay: CLS in human cells, propidium iodide fluorescence-based method (HEK293); type: cell-based; details: sixth day after seeding
Experimental: (§1) Human embryonic kidney 293 (HEK293) cells (ATCC, Manassas, Virginia, United States of America), lung epithelial (A549) cells (ATCC, Manassas, Virginia, United States of America) and fibroblast (IMR90) cells (ATCC, Manassas, Virginia, United States of America) were cultured in the standard D10 medium, consisting of high-glucose DMEM (HyClone, Cytiva, Marlborough, Massachusetts, USA) supplemented with 10% Fetal Bovine Serum (FBS) (Gibco™, ThermoFisher Scientific, Waltham, Massachusetts, USA) and 1% Penicillin Streptomycin Solution (Gibco™, ThermoFisher Scientific, Waltham, Massachusetts, USA). All cells were cultured in a humidified incubator with 5% CO2 at 37° C.
The stock solution of rapamycin, hemin, 5-fluorouracil, atorvastatin, and methotrexate was prepared in DMSO, followed by serial dilution to form various concentrations used in the experiment. The final DMSO concentration was kept at 0.05% in all experiments. The stock solution of 2,5-anhydro-D-mannitol was prepared in D10 medium. The chemical library used in screening were tested at 1 μM concentrations. Controls used were the same as the solvent applied, DMSO or water.
The assay was performed by preparing the cells with PI (2 μg/mL or 5 μg/mL) in a D10 medium. […] At different age time points, reading was taken with a Synergy MX microplate reader (BioTek, Winooski, Vermont, United States) at 535 nm excitation and 617 nm emission.

IMR90 cells = assay: CLS in human cells, PrestoBlue outgrowth assay (IMR90); type: cell-based
Experimental: as §1
The seeding, washing and trypsinization process was performed similarly to that for the crystal violet assay. 80,000 cells were seeded in a 96-well culture plate with or without compound treatment. […] After one day of growth in a 37° C. incubator with 5% CO2, the cell number was assessed with PrestoBlue™ Cell Viability Reagent (Invitrogen™, Waltham, Massachusetts, USA) according to the manufacturer's protocol. […] After incubation in a 37° C. incubator with 5% CO2 for 3 to 4 hours, reading was taken with a BioTek Synergy MX microplate reader (BioTek, Winooski, Vermont, United States) at excitation and emission wavelengths of 560 nm and 590 nm, respectively. […]

Q: With OC[C@H]1O[C@H](CO)[C@@H](O)[C@@H]1O [2,5-AM, 2,5-anhydro-D-mannitol] as the compound, how does the “antiaging activity in outgrowth assays” value ([1]; Day 1, 4, 7 and 10, FIGS. 6 to 8) read?
A: verified by outgrowth assays

Q: What about the Outgrowth ([1]; concentration tested 300 μg/mL, OD600 nm after 24 h in YPD, age point day 14) of the same compound?
A: 1.3

Q: And the “more live cells compared to the untreated group” value (HEK293 cells; 2.5 mM)?
A: 34.39%

Q: And the “more live cells compared to the untreated group” value (HEK293 cells; 5 mM)?
A: 58.7%

Q: And the “more surviving cells compared to the untreated group” value (IMR90 cells; 2.5 mM)?
A: 59.05%

Q: What about the “more viable cells compared to the untreated group” value (IMR90 cells; 5 mM) of the same compound?
A: 59.89%
